Our source for the IC50 values is patent US20230027985A1, “SUBSTITUTED HYDANTOINAMIDES AS ADAMTS7 ANTAGONISTS” (Bayer Aktiengesellschaft, priority 2019, published 2023).

The target of assay [1] is T1, Purified recombinant ADAMTS-7 (rat prodomain/human catalytic domain, SEQ ID No. 01 or 02) (Homo sapiens, UniProt Q9UKP4).
T1 construct: rat ADAMTS-7 signal peptide + prodomain (rat 1-217, Q1EHB3) (N); 2xStrep tag (C); 6xHis tag (C); made in house; host or cells: Expi293 cells
T1 sequence (Q9UKP4 237-537): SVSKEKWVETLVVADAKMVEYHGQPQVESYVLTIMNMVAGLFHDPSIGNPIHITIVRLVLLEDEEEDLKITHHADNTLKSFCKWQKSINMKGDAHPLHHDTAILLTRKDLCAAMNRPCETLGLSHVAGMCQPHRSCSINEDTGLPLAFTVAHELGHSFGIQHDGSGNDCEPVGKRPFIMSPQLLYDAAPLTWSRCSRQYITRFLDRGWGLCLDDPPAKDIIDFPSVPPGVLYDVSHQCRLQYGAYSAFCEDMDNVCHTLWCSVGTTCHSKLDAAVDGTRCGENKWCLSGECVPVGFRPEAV
Kind of assay: Assay for ADAMTS-7 enzymatic activity (FRET substrate cleavage). The format is biochemical. Conditions: FRET substrate SEQ ID No. 11, 120 min at 32° C.; read-out: ADAMTS7-IC50. The gist of the method:
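IC50 values were fitted from percent inhibition across test-compound concentrations. Fluorescence gain (ex 485, em 520 nm) reports cleavage of a thrombospondin-1 (275-289) FRET peptide with QXL520 quencher, after 120 min at 32 °C. The enzyme, about 20 nM, was in HEPES pH 8.0 buffer with NaCl, CaCl2, ZnCl2 and Brij.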

Assay [2] deals with T2, ADAMTS4 (Homo sapiens, UniProt O75173).
T2 construct: purchased R&D 4307-AD
T2 sequence (O75173 213-685 limits assumed): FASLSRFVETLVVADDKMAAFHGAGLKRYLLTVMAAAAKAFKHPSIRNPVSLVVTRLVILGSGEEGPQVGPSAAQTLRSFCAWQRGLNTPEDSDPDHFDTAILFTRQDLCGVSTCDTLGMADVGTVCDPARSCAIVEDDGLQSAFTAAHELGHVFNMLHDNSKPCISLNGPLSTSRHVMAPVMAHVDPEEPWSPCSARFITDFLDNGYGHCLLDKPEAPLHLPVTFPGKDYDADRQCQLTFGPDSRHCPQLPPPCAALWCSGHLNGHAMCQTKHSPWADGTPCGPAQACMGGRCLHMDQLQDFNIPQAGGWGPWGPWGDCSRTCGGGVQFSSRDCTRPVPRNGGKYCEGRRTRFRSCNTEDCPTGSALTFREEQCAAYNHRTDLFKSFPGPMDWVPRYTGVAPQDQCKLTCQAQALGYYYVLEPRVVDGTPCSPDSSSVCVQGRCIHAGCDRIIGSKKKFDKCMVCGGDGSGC
Nature of the assay: Selectivity assay for ADAMTS-7 modulators (FRET), ADAMTS4. Conditions: 50 nM enzyme (R&D 4307-AD), 1 μM Dabcyl/Edans FRET substrate, 120 min at 32° C. The class given is biochemical. A digest of the protocol:
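Enzyme in 50 mM Tris pH 7.5, 150 mM NaCl, 10 mM CaCl2, 0.05% Brij, preincubated with compound in DMSO; reaction started with FRET substrate. Fluorescence increase read after 120 min at 32° C; IC50 from percent inhibition versus compound concentration.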

pIC50: −log10 of the molar value.

As to `O=C1NC(=O)C(CNC(=O)c2cnn(-c3cc(F)c(F)c(F)c3)n2)(C2CCC2)N1` (stereo not drawn) [Example 90, ent-N-[(4-cyclobutyl-2,5-dioxoimidazolidin-4-yl)methyl]-2-(3,4,5-trifluorophenyl)-2H-1,2,3-triazole-4-carboxamide], the pIC50 is 7.80 in assay [1] and 5.51 in assay [2].
For `Cn1ccnc1C1(CNC(=O)c2cnn(-c3ccc(Cl)c(F)c3)n2)NC(=O)NC1=O` (single isomer, unassigned; ent-2) [Example 145, ent-2-(4-chloro-3-fluorophenyl)-N-{[4-(1-methyl-1H-imidazol-2-yl)-2,5-dioxoimidazolidin-4-yl]methyl}-2H-1,2,3-triazole-4-carboxamide] the same measures were 8.70 and 7.39.
Regarding `O=C1NC(=O)[C@](CNC(=O)c2cnn(-c3ccc(F)c(Cl)c3)n2)(C2CC2)N1` [Example 29, 2-(3-chloro-4-fluorophenyl)-N-{[(4R)-4-cyclopropyl-2,5-dioxoimidazolidin-4-yl]methyl}-2H-1,2,3-triazole-4-carboxamide], the results for the pIC50 in assay [1] and in assay [2] were 8.30 and 6.60, respectively.
As to `O=C1NC(=O)C(CNC(=O)c2cnn(-c3ccc(F)cc3)n2)(C2(F)CC2)N1` (racemic) [Example 154, rac-N-{[4-(1-fluorocyclopropyl)-2,5-dioxoimidazolidin-4-yl]methyl}-2-(4-fluorophenyl)-2H-1,2,3-triazole-4-carboxamide], the pIC50 is 6.72 in assay [1] and 5.10 in assay [2].
For `Cc1ncsc1C1(CNC(=O)c2cnn(-c3ccc(F)cc3)n2)NC(=O)NC1=O` (racemic) [Example 131, rac-2-(4-fluorophenyl)-N-{[4-(4-methyl-1,3-thiazol-5-yl)-2,5-dioxoimidazolidin-4-yl]methyl}-2H-1,2,3-triazole-4-carboxamide] the same measures were 7.43 and 5.60.
For `CC(C)(C)C1(CNC(=O)c2cnn(-c3ccccc3)n2)NC(=O)NC1=O` (racemic) [Example 49, rac-[(4-tert-butyl-2,5-dioxoimidazolidin-4-yl)methyl]-2-phenyl-2H-1,2,3-triazole-4-carboxamide] the same measures were 7.15 and 4.82.
For `O=C1NC(=O)[C@](CNC(=O)c2cnn(-c3ccc(F)c(F)c3)n2)(C2CC2)N1` [Example 8, N-{[(4R)-4-cyclopropyl-2,5-dioxoimidazolidin-4-yl]methyl}-2-(3,4-difluorophenyl)-2H-1,2,3-triazole-4-carboxamide], in that order: 8.15 and 6.76.
For `CC(C)(C)CC1(CNC(=O)c2cnn(-c3ccccc3)n2)NC(=O)NC1=O` (stereo not drawn) [Example 44, ent-N-{[4-(2,2-dimethylpropyl)-2,5-dioxoimidazolidin-4-yl]methyl}-2-phenyl-2H-1,2,3-triazole-4-carboxamide], the pIC50 was 6.60 in assay [1] and 5.30 in assay [2].
On to `O=C1NC(=O)[C@](CNC(=O)c2cnn(-c3ccccn3)n2)(C2CC2)N1` [Example 47, N-{[(4R)-4-cyclopropyl-2,5-dioxoimidazolidin-4-yl]methyl}-2-(pyridin-2-yl)-2H-1,2,3-triazole-4-carboxamide], for which the pIC50 in assay [1] is 7.01; in assay [2] it was 5.12.
For `O=C1NC(=O)[C@](CNC(=O)c2cnn(-c3ccc(F)cc3F)n2)(C2CC2)N1` [Example 31, N-{[(4R)-4-cyclopropyl-2,5-dioxoimidazolidin-4-yl]methyl}-2-(2,4-difluorophenyl)-2H-1,2,3-triazole-4-carboxamide], in that order: 7.39 and 5.37.
For `O=C1NC(=O)C(CNC(=O)c2cnn(-c3ccc(F)cc3F)n2)(c2nccs2)N1` (racemic) [Example 115, rac-2-(2,4-difluorophenyl)-N-{[2,5-dioxo-4-(1,3-thiazol-2-yl)imidazolidin-4-yl]methyl}-2H-1,2,3-triazole-4-carboxamide] the same measures were 7.06 and 5.18.
On to `O=C1NC(=O)[C@](CNC(=O)c2cnc(-c3ccccc3)o2)(C2CC2)N1` [Example 59, N-{[(4R)-4-cyclopropyl-2,5-dioxoimidazolidin-4-yl]methyl}-2-phenyl-1,3-oxazole-5-carboxamide], for which the pIC50 in assay [1] was 6.26; in assay [2] it was 4.95.
For `CC1(C)CC1C1(CNC(=O)c2cnn(-c3ccccc3)n2)NC(=O)NC1=O` (stereo not drawn) [Example 43, ent-N-{[4-(2,2-dimethylcyclopropyl)-2,5-dioxoimidazolidin-4-yl]methyl}-2-phenyl-2H-1,2,3-triazole-4-carboxamide] the same measures were 6.49 and 4.89.
For `CC(C)C1(CNC(=O)c2cnn(-c3ccc(F)c(F)c3)n2)NC(=O)NC1=O` (racemic) [Example 122, rac-2-(3,4-difluorophenyl)-N-[(4-isopropyl-2,5-dioxoimidazolidin-4-yl)methyl]-2H-1,2,3-triazole-4-carboxamide], in that order: 7.96 and 5.60.
For `O=C1NC(=O)[C@](CNC(=O)c2coc(-c3ccc(F)cc3)n2)(C2CC2)N1` [Example 41, N-{[(4R)-4-cyclopropyl-2,5-dioxoimidazolidin-4-yl]methyl}-2-(4-fluorophenyl)-1,3-oxazole-4-carboxamide] the same measures were 7.26 and 5.77.
For the compound `CC(C)(C)C1(CNC(=O)c2cnn(-c3cccc(F)c3)n2)NC(=O)NC1=O` (racemic) [Example 4, rac-N-{[4-tert-butyl-2,5-dioxoimidazolidin-4-yl]methyl}-2-(3-fluorophenyl)-2H-1,2,3-triazole-4-carboxamide], the pIC50 in assay [1] was 6.59; in assay [2] it was 5.18.
`CC1(CNC(=O)c2cnn(-c3ccc(F)cc3)n2)NC(=O)NC1=O` (single isomer, unassigned; ent-2) [Example 153, ent-2-(4-fluorophenyl)-N-[(4-methyl-2,5-dioxoimidazolidin-4-yl)methyl]-2H-1,2,3-triazole-4-carboxamide]: the results for the pIC50 in assay [1] and in assay [2] were 7.08 and 5.05, respectively.
For `CC(C)(C)C1(CNC(=O)c2cnn(-c3ccccc3)n2)NC(=O)NC1=O` (stereo not drawn) [Example 71, ent-N-[(4-tert-butyl-2,5-dioxoimidazolidin-4-yl)methyl]-2-phenyl-2H-1,2,3-triazole-4-carboxamide], in that order: 7.33 and 4.88.
For `CC(C)C1(CNC(=O)c2cnn(-c3ccc(F)cc3F)n2)NC(=O)NC1=O` (single isomer, unassigned; ent-2) [Example 88, ent-2-(2,4-difluorophenyl)-N-[(4-isopropyl-2,5-dioxoimidazolidin-4-yl)methyl]-2H-1,2,3-triazole-4-carboxamide] the same measures were 7.01 and 4.89.
For `O=C1NC(=O)[C@](CNC(=O)c2cnn(-c3ccc(C(F)(F)F)c(F)c3)n2)(C2CC2)N1` [Example 5, N-{[(4R)-4-cyclopropyl-2,5-dioxoimidazolidin-4-yl]methyl}-2-[3-fluoro-4-(trifluoromethyl)phenyl]-2H-1,2,3-triazole-4-carboxamide], in that order: 6.92 and 5.34.
With `CC(C)C1(CNC(=O)c2cnn(-c3ccc(F)cc3)n2)NC(=O)NC1=O` (stereo not drawn) [Example 76, ent-N-[(2,5-dioxo-4-(propan-2-yl)imidazolidin-4-yl)methyl]-2-(4-fluorophenyl)-2H-1,2,3-triazole-4-carboxamide], the results for the pIC50 in assay [1] and in assay [2] were 8.10 and 5.56, respectively.

For orientation: pIC50 means the IC50 on a negative log10 scale, so that one unit is a factor of ten.
